# Laboratory results published in US20220323406A1, “METHODS AND COMPOSITIONS FOR DIFFERENTIATING STEM CELLS” (Massachusetts Institute of Technology, priority 2019, published 2022).
# Assays:
# [1] = tested on: ENR+CD organoids (ISC to Paneth cell differentiation); experiment: Primary screen: CCh-stimulated lysozyme secretion LYZ.S, 2.5-D 384-well ENR+CD organoid differentiation; format: cell-based, mouse; conditions: primary screen
# Excerpt: (§1) High-throughput screening.
# [2] = tested on: ENR+CD organoids (ISC to Paneth cell differentiation); experiment: Primary screen: basal (non-stimulated) lysozyme secretion LYZ.NS, 2.5-D 384-well ENR+CD organoid differentiation; format: cell-based, mouse; conditions: primary screen; for Z.LYZ.NS: standard z score
# Excerpt: as §1
# ENR+CD organoids = experiment: Primary screen: ATP (CellTiter-Glo 3D, CTG) cell number/viability, 2.5-D 384-well ENR+CD organoids; conditions: primary screen; for Z.CTG: standard z score;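 for all read-outs here: compounds given at plating and again on day 3 over a 6-day differentiation from ENR+CV stem-cell-enriched precursors, ATP measured on day 6, plate median as control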
# [3] = dose 0.08 uM, FC relative to plate median
# [4] = dose 0.40 uM, FC relative to plate median
# [5] = dose 2.00 uM, FC relative to plate median
# [6] = dose 10.00 uM, FC relative to plate median
# [7] = dose 0.08 uM, FC vs plate median
# [8] = dose 0.40 uM, FC vs plate median
# [9] = dose 2.00 uM, FC vs plate median
# [10] = dose 10.00 uM, FC vs plate median
SMILES,Z.LYZ.NS (standard z score) ([2]; dose 0.08 uM),"Dose.FC.LYZ.S [1, 3] [log2 fold change]","Dose.FC.LYZ.S [1, 4] [log2 fold change]","Dose.FC.LYZ.S [1, 5] [log2 fold change]","Dose.FC.LYZ.S [1, 6] [log2 fold change]","Dose.FC.LYZ.NS [2, 3] [log2 fold change]",Z.LYZ.NS ([2]; dose 0.08 uM),"Dose.FC.LYZ.NS [2, 4] [log2 fold change]",Z.LYZ.NS ([2]; dose 0.40 uM),"Dose.FC.LYZ.NS [2, 5] [log2 fold change]",Z.LYZ.NS ([2]; dose 2.00 uM),"Dose.FC.LYZ.NS [2, 6] [log2 fold change]",Z.LYZ.NS ([2]; dose 10.00 uM),Dose.FC.CTG (ENR+CD organoids; [3]) [log2 fold change],Dose.FC.CTG (ENR+CD organoids; [4]) [log2 fold change],Dose.FC.CTG (ENR+CD organoids; [5]) [log2 fold change],Z.CTG (ENR+CD organoids; dose 0.08 uM),Z.CTG (ENR+CD organoids; dose 0.40 uM),Z.CTG (ENR+CD organoids; dose 2.00 uM),Z.CTG (ENR+CD organoids; dose 10.00 uM),further results
CC[C@H](C)C(=O)O[C@H]1C[C@@H](C)C=C2C=C[C@H](C)[C@H](CC[C@@H]3C[C@@H](O)CC(=O)O3)[C@H]21 [Lovastatin],0.017,,,,,,,,,,,,,,,,,,,,Dose.FC.LYZ.S (log2 fold change) ([1]; dose 0.08 uM): −0.023; Dose.FC.LYZ.S (log2 fold change) ([1]; dose 0.40 uM): −0.049; Dose.FC.LYZ.S (log2 fold change) ([1]; dose 2.00 uM): −0.398; Dose.FC.LYZ.S (log2 fold change) ([1]; dose 10.00 uM): −0.409; Dose.FC.LYZ.NS (log2 fold change) ([2]; dose 0.08 uM): 0.002; Dose.FC.LYZ.NS (log2 fold change) ([2]; dose 0.40 uM): −0.057; Z.LYZ.NS (standard z score) ([2]; dose 0.40 uM): −0.492; Dose.FC.LYZ.NS (log2 fold change) ([2]; dose 2.00 uM): −0.279; Z.LYZ.NS (standard z score) ([2]; dose 2.00 uM): −2.430; Dose.FC.LYZ.NS (log2 fold change) ([2]; dose 10.00 uM): −0.271; Z.LYZ.NS (standard z score) ([2]; dose 10.00 uM): −2.362; Dose.FC.CTG (log2 fold change) (ENR+CD organoids; dose 0.08 uM): −0.322; Dose.FC.CTG (log2 fold change) (ENR+CD organoids; dose 0.40 uM): −0.492; Dose.FC.CTG (log2 fold change) (ENR+CD organoids; dose 2.00 uM): −1.174; Dose.FC.CTG (log2 fold change) (ENR+CD organoids; dose 10.00 uM): −1.391
O=C(Nc1ccccc1)N1CCN(c2nc(-c3ccccc3)ns2)CC1 [JNJ-1661010],1.066,,,,,,,,,,,,,,,,,,,,Dose.FC.LYZ.S (log2 fold change) ([1]; dose 0.08 uM): 0.135; Dose.FC.LYZ.S (log2 fold change) ([1]; dose 0.40 uM): 0.041; Dose.FC.LYZ.S (log2 fold change) ([1]; dose 2.00 uM): −0.063; Dose.FC.LYZ.S (log2 fold change) ([1]; dose 10.00 uM): −0.068; Dose.FC.LYZ.NS (log2 fold change) ([2]; dose 0.08 uM): 0.122; Dose.FC.LYZ.NS (log2 fold change) ([2]; dose 0.40 uM): 0.075; Z.LYZ.NS (standard z score) ([2]; dose 0.40 uM): 0.653; Dose.FC.LYZ.NS (log2 fold change) ([2]; dose 2.00 uM): 0.103; Z.LYZ.NS (standard z score) ([2]; dose 2.00 uM): 0.897; Dose.FC.LYZ.NS (log2 fold change) ([2]; dose 10.00 uM): 0.047; Z.LYZ.NS (standard z score) ([2]; dose 10.00 uM): 0.406; Dose.FC.CTG (log2 fold change) (ENR+CD organoids; dose 0.08 uM): −0.094; Z.CTG (standard z score) (ENR+CD organoids; dose 0.08 uM): −0.225; Dose.FC.CTG (log2 fold change) (ENR+CD organoids; dose 0.40 uM): −0.262; Z.CTG (standard z score) (ENR+CD organoids; dose 0.40 uM): −0.625; Dose.FC.CTG (log2 fold change) (ENR+CD organoids; dose 2.00 uM): −0.055; Z.CTG (standard z score) (ENR+CD organoids; dose 2.00 uM): −0.131; Dose.FC.CTG (log2 fold change) (ENR+CD organoids; dose 10.00 uM): −0.145; Z.CTG (standard z score) (ENR+CD organoids; dose 10.00 uM): −0.346
C[C@]1(c2nc3c(C(N)=O)cccc3[nH]2)CCCN1 [Veliparib (ABT-888)],0.649,,,,,,,,,,,,,,,,,,,,Dose.FC.LYZ.S ([1]; dose 0.08 uM): 0.105 log2 fold change; Dose.FC.LYZ.S ([1]; dose 0.40 uM): 0.179 log2 fold change; Dose.FC.LYZ.S ([1]; dose 2.00 uM): −0.016 log2 fold change; Dose.FC.LYZ.S ([1]; dose 10.00 uM): −0.136 log2 fold change; Dose.FC.LYZ.NS ([2]; dose 0.08 uM): 0.075 log2 fold change; Dose.FC.LYZ.NS ([2]; dose 0.40 uM): 0.139 log2 fold change; Z.LYZ.NS (standard z score) ([2]; dose 0.40 uM): 1.211; Dose.FC.LYZ.NS ([2]; dose 2.00 uM): 0.023 log2 fold change; Z.LYZ.NS (standard z score) ([2]; dose 2.00 uM): 0.203; Dose.FC.LYZ.NS ([2]; dose 10.00 uM): −0.062 log2 fold change; Z.LYZ.NS (standard z score) ([2]; dose 10.00 uM): −0.537; Dose.FC.CTG (ENR+CD organoids; dose 0.08 uM): 0.128 log2 fold change; Z.CTG (standard z score) (ENR+CD organoids; dose 0.08 uM): 0.307; Dose.FC.CTG (ENR+CD organoids; dose 0.40 uM): 0.055 log2 fold change; Z.CTG (standard z score) (ENR+CD organoids; dose 0.40 uM): 0.132; Dose.FC.CTG (ENR+CD organoids; dose 2.00 uM): −0.024 log2 fold change; Z.CTG (standard z score) (ENR+CD organoids; dose 2.00 uM): −0.057; Dose.FC.CTG (ENR+CD organoids; dose 10.00 uM): −0.218 log2 fold change; Z.CTG (standard z score) (ENR+CD organoids; dose 10.00 uM): −0.521
CNC(=O)c1cc(Oc2ccc(NC(=O)Nc3ccc(Cl)c(C(F)(F)F)c3)cc2)ccn1 [Sorafenib],,0.124,0.164,0.014,−0.062,0.052,0.457,0.060,0.520,0.095,0.830,−0.021,−0.180,0.032,0.165,−0.206,,,,,
CN1CCC(CNc2ccc3ncc(-c4cccc(OC(F)(F)F)c4)n3n2)CC1 [SGI-1776free base],,0.159,0.088,0.011,−0.317,0.116,1.013,0.042,0.362,0.012,0.108,−0.205,−1.784,0.170,0.278,0.212,0.407,0.665,0.506,−2.468,Dose.FC.CTG (ENR+CD organoids; [6]): −1.033 log2 fold change
COc1cc2c(N3CCN(C(=O)Nc4ccc(OC(C)C)cc4)CC3)ncnc2cc1OCCCN1CCCCC1 [Tandutinib (MLN518)],,0.145,0.178,0.093,0.100,0.095,0.828,0.122,1.066,0.116,1.012,0.047,0.407,0.585,0.354,0.358,1.397,0.845,0.856,1.401,Dose.FC.CTG (ENR+CD organoids; [6]): 0.586 log2 fold change
CS(=O)(=O)c1cccc(CNc2nc(Nc3ccc4c(c3)CCC(=O)N4)ncc2C(F)(F)F)c1 [PF-573228],,,,,,,0.089,,−0.401,,−0.502,,−2.180,,,,0.183,−0.129,−1.037,−1.188,"Dose.FC.LYZ.S [1, 7]: 0.114 log2 fold change; Dose.FC.LYZ.S [1, 8]: 0.002 log2 fold change; Dose.FC.LYZ.S [1, 9]: −0.174 log2 fold change; Dose.FC.LYZ.S [1, 10]: −0.305 log2 fold change; Dose.FC.LYZ.NS [2, 7]: 0.010 log2 fold change; Dose.FC.LYZ.NS [2, 8]: −0.046 log2 fold change; Dose.FC.LYZ.NS [2, 9]: −0.058 log2 fold change; Dose.FC.LYZ.NS [2, 10]: −0.250 log2 fold change; Dose.FC.CTG (ENR+CD organoids; [7]): 0.077 log2 fold change; Dose.FC.CTG (ENR+CD organoids; [8]): −0.054 log2 fold change; Dose.FC.CTG (ENR+CD organoids; [9]): −0.434 log2 fold change; Dose.FC.CTG (ENR+CD organoids; [10]): −0.497 log2 fold change"
Cc1cc(Nc2ccc(NC(=O)c3ccc(Nc4ccnc5ccccc45)cc3)cc2)nc(N)n1 [SGI-1027],,0.060,0.145,0.094,0.018,0.061,0.528,0.084,0.735,0.129,1.123,−0.005,−0.046,0.244,0.298,0.172,0.583,0.712,0.412,0.125,Dose.FC.CTG (ENR+CD organoids; [6]): 0.052 log2 fold change
